Measured values published in the NIST ThermoML archive (doi:10.1021/je700542v).
“And” between values parts separate entries of the source, which are not always exact repeats. Equal values may be shown once. Numbers after ± are expanded uncertainties.

Conditions: Crystal

[Ag+].[F-] [silver fluoride]
Conditions | vapor or sublimation pressure
880 K | 5.754e-05 ± 5.8e-06 kPa
891 K | 5.248e-05 ± 5.3e-06 kPa
894 K | 7.763e-05 ± 7.8e-06 kPa
897 K | 7.763e-05 ± 7.8e-06 kPa
904 K | 8.318e-05 ± 8.3e-06 kPa
910 K | 0.0001549 ± 1.6e-05 kPa and 9.772e-05 ± 9.8e-06 kPa and 0.0001047 ± 1e-05 kPa
912 K | 0.0001047 ± 1e-05 kPa
913 K | 0.0001349 ± 1.4e-05 kPa
914 K | 0.0001549 ± 1.6e-05 kPa
917 K | 0.0001549 ± 1.6e-05 kPa
920 K | 0.0002291 ± 2.3e-05 kPa and 0.0001549 ± 1.6e-05 kPa and 0.000166 ± 1.7e-05 kPa
921 K | 0.0001738 ± 1.7e-05 kPa
925 K | 0.000166 ± 1.7e-05 kPa
928 K | 0.0002344 ± 2.3e-05 kPa
929 K | 0.000195 ± 2e-05 kPa and 0.0002089 ± 2.1e-05 kPa
931 K | 0.0001738 ± 1.7e-05 kPa and 0.0002512 ± 2.5e-05 kPa
933 K | 0.0002089 ± 2.1e-05 kPa
936 K | 0.0002692 ± 2.7e-05 kPa
938 K | 0.0002692 ± 2.7e-05 kPa
939 K | 0.0003715 ± 3.7e-05 kPa
941 K | 0.0002399 ± 2.4e-05 kPa
942 K | 0.0002692 ± 2.7e-05 kPa
947 K | 0.0004074 ± 4.1e-05 kPa
948 K | 0.000309 ± 3.1e-05 kPa and 0.0004266 ± 4.3e-05 kPa
949 K | 0.0005248 ± 5.3e-05 kPa and 0.0003467 ± 3.5e-05 kPa and 0.0003715 ± 3.7e-05 kPa
955 K | 0.0003715 ± 3.7e-05 kPa
956 K | 0.0004266 ± 4.3e-05 kPa
958 K | 0.0005012 ± 5e-05 kPa and 0.0004677 ± 4.7e-05 kPa
965 K | 0.000537 ± 5.4e-05 kPa and 0.0005012 ± 5e-05 kPa
966 K | 0.0006918 ± 6.9e-05 kPa
967 K | 0.0006761 ± 6.8e-05 kPa
968 K | 0.0008913 ± 8.9e-05 kPa
974 K | 0.0006456 ± 6.5e-05 kPa
975 K | 0.0006761 ± 6.8e-05 kPa
977 K | 0.0007244 ± 7.2e-05 kPa and 0.0007763 ± 7.8e-05 kPa
978 K | 0.0008511 ± 8.5e-05 kPa
979 K | 0.0008913 ± 8.9e-05 kPa
984 K | 0.001047 ± 0.00021 kPa
985 K | 0.000871 ± 8.7e-05 kPa and 0.000912 ± 9.1e-05 kPa and 0.0009772 ± 9.8e-05 kPa
986 K | 0.001445 ± 0.00031 kPa
987 K | 0.0008913 ± 8.9e-05 kPa
990 K | 0.001175 ± 0.00024 kPa
994 K | 0.001097 ± 0.00022 kPa and 0.001175 ± 0.00024 kPa
995 K | 0.001698 ± 0.00038 kPa
996 K | 0.001349 ± 0.00029 kPa and 0.001071 ± 0.00022 kPa
1000 K | 0.001479 ± 0.00032 kPa and 0.001585 ± 0.00035 kPa
1004 K | 0.001445 ± 0.00031 kPa
1005 K | 0.00123 ± 0.00026 kPa
1008 K | 0.002239 ± 0.00053 kPa
1010 K | 0.001862 ± 0.00042 kPa
1012 K | 0.00166 ± 0.00037 kPa and 0.001778 ± 0.0004 kPa
1013 K | 0.001995 ± 0.00046 kPa and 0.001412 ± 0.0003 kPa
1014 K | 0.001738 ± 0.00039 kPa
1017 K | 0.00263 ± 0.00064 kPa
1019 K | 0.002399 ± 0.00057 kPa
1022 K | 0.002089 ± 0.00048 kPa and 0.002239 ± 0.00053 kPa
1025 K | 0.002344 ± 0.00056 kPa
1026 K | 0.001995 ± 0.00046 kPa
1031 K | 0.002455 ± 0.00059 kPa and 0.00263 ± 0.00064 kPa
1034 K | 0.00257 ± 0.00062 kPa
1036 K | 0.003311 ± 0.00083 kPa
1037 K | 0.003548 ± 0.0009 kPa
1040 K | 0.00309 ± 0.00077 kPa and 0.003311 ± 0.00083 kPa
1049 K | 0.003715 ± 0.00095 kPa and 0.003981 ± 0.001 kPa
1057 K | 0.004467 ± 0.0012 kPa and 0.004786 ± 0.0013 kPa

[Cu+2].[F-].[F-] [copper difluoride]
Conditions | vapor or sublimation pressure
881 K | 2.188e-05 ± 2.2e-06 kPa
886 K | 2.951e-05 ± 3e-06 kPa
895 K | 4.365e-05 ± 4.4e-06 kPa
896 K | 3.715e-05 ± 3.7e-06 kPa and 4.365e-05 ± 4.4e-06 kPa
897 K | 4.365e-05 ± 4.4e-06 kPa
900 K | 4.365e-05 ± 4.4e-06 kPa
901 K | 5.129e-05 ± 5.1e-06 kPa
902 K | 5.129e-05 ± 5.1e-06 kPa
903 K | 5.888e-05 ± 5.9e-06 kPa
906 K | 5.888e-05 ± 5.9e-06 kPa
908 K | 5.888e-05 ± 5.9e-06 kPa
909 K | 8.128e-05 ± 8.1e-06 kPa
911 K | 6.607e-05 ± 6.6e-06 kPa
912 K | 8.912e-05 ± 8.9e-06 kPa
913 K | 7.413e-05 ± 7.4e-06 kPa
914 K | 8.128e-05 ± 8.2e-06 kPa
915 K | 8.912e-05 ± 8.9e-06 kPa and 7.413e-05 ± 7.4e-06 kPa
918 K | 7.413e-05 ± 7.4e-06 kPa
919 K | 0.0001023 ± 1e-05 kPa
921 K | 0.0001175 ± 1.2e-05 kPa
922 K | 0.0001023 ± 1e-05 kPa and 9.55e-05 ± 9.6e-06 kPa
924 K | 0.0001175 ± 1.2e-05 kPa
925 K | 0.0001096 ± 1.1e-05 kPa
928 K | 0.0001175 ± 1.2e-05 kPa
929 K | 0.0001318 ± 1.3e-05 kPa
930 K | 0.0001318 ± 1.3e-05 kPa and 0.0001479 ± 1.5e-05 kPa and 0.0001622 ± 1.6e-05 kPa
931 K | 0.0001096 ± 1.1e-05 kPa
932 K | 0.0001622 ± 1.6e-05 kPa
934 K | 0.0001479 ± 1.5e-05 kPa
939 K | 0.0001905 ± 1.9e-05 kPa and 0.0001778 ± 1.8e-05 kPa
940 K | 0.0001905 ± 1.9e-05 kPa and 0.0002188 ± 2.2e-05 kPa
941 K | 0.0001778 ± 1.8e-05 kPa
942 K | 0.0002042 ± 2e-05 kPa
943 K | 0.0002042 ± 2e-05 kPa
944 K | 0.0001905 ± 1.9e-05 kPa
948 K | 0.0002512 ± 2.5e-05 kPa and 0.0002344 ± 2.3e-05 kPa
949 K | 0.0002512 ± 2.5e-05 kPa
950 K | 0.000309 ± 3.1e-05 kPa
952 K | 0.0002818 ± 2.8e-05 kPa and 0.000263 ± 2.6e-05 kPa
953 K | 0.0002818 ± 2.8e-05 kPa
955 K | 0.000309 ± 3.1e-05 kPa
956 K | 0.0002951 ± 3e-05 kPa and 0.0002818 ± 2.8e-05 kPa
959 K | 0.0003715 ± 3.7e-05 kPa and 0.0003548 ± 3.6e-05 kPa
960 K | 0.0003802 ± 3.8e-05 kPa
961 K | 0.0004365 ± 4.4e-05 kPa
964 K | 0.0004266 ± 4.3e-05 kPa
965 K | 0.0003802 ± 3.8e-05 kPa and 0.0004074 ± 4.1e-05 kPa
969 K | 0.0005012 ± 5e-05 kPa [middle of 4 runs]
970 K | 0.0005888 ± 5.9e-05 kPa
973 K | 0.0005495 ± 5.5e-05 kPa and 0.0005129 ± 5.1e-05 kPa
974 K | 0.0005129 ± 5.1e-05 kPa
976 K | 0.0006166 ± 6.2e-05 kPa
978 K | 0.0006607 ± 6.6e-05 kPa
979 K | 0.0006607 ± 6.6e-05 kPa and 0.0007413 ± 7.4e-05 kPa
982 K | 0.0006607 ± 6.6e-05 kPa
983 K | 0.0007413 ± 7.4e-05 kPa
984 K | 0.0006761 ± 6.8e-05 kPa
986 K | 0.0008128 ± 8.1e-05 kPa and 0.0008318 ± 8.3e-05 kPa
988 K | 0.0008318 ± 8.3e-05 kPa
989 K | 0.0007943 ± 7.9e-05 kPa
990 K | 0.0008511 ± 8.5e-05 kPa
992 K | 0.0009772 ± 9.8e-05 kPa
993 K | 0.001023 ± 0.00021 kPa
996 K | 0.001122 ± 0.00023 kPa and 0.001097 ± 0.00022 kPa
998 K | 0.001122 ± 0.00023 kPa and 0.001023 ± 0.00021 kPa
999 K | 0.001097 ± 0.00022 kPa
1002 K | 0.001288 ± 0.00027 kPa
1003 K | 0.00123 ± 0.00026 kPa
1005 K | 0.001445 ± 0.00031 kPa and 0.001412 ± 0.0003 kPa
1006 K | 0.001412 ± 0.0003 kPa
1007 K | 0.001349 ± 0.00029 kPa
1008 K | 0.001445 ± 0.00031 kPa
1011 K | 0.001698 ± 0.00038 kPa
1013 K | 0.00182 ± 0.00041 kPa
1014 K | 0.001862 ± 0.00042 kPa
1015 K | 0.001906 ± 0.00043 kPa and 0.001778 ± 0.0004 kPa
1016 K | 0.001738 ± 0.00039 kPa
1020 K | 0.002188 ± 0.00051 kPa and 0.001995 ± 0.00046 kPa
1023 K | 0.002455 ± 0.00059 kPa
1024 K | 0.002455 ± 0.00059 kPa
1025 K | 0.00257 ± 0.00062 kPa and 0.002455 ± 0.00059 kPa and 0.002239 ± 0.00053 kPa
1030 K | 0.00263 ± 0.00064 kPa
1032 K | 0.00309 ± 0.00077 kPa
1033 K | 0.003162 ± 0.00079 kPa
1051 K | 0.005129 ± 0.0014 kPa
